Reference: patent US10065963B2 (Incyte Corporation, priority 2015, dated 2018)
Counter-ions that a name gives are not always drawn.

Tests used:
[1] = molecular target: PI3Kδ (p110δ/p85α) Recombinant Human Protein (Homo sapiens (Human), UniProt O00329); test: PI3Kδ scintillation proximity assay; format: biochemical
[2] = molecular target: PI3Kγ (p110γ) Recombinant Human Protein (Homo sapiens (Human), UniProt P48736); test: PI3K-γ scintillation proximity assay; format: biochemical; conditions: 2 μM ATP, 20 μM PIP2
PI3Kγ (p110γ) Recombinant Human Protein, sequence (P48736 whole entry): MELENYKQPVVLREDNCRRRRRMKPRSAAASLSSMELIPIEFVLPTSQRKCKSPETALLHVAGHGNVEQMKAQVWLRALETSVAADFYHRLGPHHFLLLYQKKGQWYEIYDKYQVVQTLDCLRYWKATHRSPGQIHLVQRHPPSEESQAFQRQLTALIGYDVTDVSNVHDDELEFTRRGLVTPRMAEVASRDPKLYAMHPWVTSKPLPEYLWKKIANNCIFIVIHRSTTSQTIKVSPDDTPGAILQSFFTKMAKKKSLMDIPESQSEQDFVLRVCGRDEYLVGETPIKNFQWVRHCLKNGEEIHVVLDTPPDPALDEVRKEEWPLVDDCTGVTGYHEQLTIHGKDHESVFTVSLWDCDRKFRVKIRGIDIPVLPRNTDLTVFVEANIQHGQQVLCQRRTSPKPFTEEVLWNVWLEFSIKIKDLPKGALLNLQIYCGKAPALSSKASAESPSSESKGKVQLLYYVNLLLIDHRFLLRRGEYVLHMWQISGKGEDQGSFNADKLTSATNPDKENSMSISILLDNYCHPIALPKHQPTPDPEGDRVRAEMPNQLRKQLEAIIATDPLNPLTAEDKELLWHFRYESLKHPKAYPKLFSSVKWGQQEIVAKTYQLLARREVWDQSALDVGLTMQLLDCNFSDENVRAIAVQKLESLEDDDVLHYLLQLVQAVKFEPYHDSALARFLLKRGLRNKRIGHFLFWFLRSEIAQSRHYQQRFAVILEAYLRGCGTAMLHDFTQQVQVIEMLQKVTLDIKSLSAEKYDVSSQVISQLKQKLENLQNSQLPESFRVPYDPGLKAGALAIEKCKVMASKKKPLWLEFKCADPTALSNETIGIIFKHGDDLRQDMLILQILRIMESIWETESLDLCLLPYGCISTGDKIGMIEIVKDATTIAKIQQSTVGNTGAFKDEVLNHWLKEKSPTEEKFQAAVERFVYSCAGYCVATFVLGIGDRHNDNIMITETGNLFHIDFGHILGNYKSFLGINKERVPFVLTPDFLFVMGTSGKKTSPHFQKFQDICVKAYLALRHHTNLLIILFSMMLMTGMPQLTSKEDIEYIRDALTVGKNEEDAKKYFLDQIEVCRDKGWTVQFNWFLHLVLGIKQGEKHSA

PI3Kδ (p110δ/p85α) Recombinant Human Protein, sequence (O00329 whole entry): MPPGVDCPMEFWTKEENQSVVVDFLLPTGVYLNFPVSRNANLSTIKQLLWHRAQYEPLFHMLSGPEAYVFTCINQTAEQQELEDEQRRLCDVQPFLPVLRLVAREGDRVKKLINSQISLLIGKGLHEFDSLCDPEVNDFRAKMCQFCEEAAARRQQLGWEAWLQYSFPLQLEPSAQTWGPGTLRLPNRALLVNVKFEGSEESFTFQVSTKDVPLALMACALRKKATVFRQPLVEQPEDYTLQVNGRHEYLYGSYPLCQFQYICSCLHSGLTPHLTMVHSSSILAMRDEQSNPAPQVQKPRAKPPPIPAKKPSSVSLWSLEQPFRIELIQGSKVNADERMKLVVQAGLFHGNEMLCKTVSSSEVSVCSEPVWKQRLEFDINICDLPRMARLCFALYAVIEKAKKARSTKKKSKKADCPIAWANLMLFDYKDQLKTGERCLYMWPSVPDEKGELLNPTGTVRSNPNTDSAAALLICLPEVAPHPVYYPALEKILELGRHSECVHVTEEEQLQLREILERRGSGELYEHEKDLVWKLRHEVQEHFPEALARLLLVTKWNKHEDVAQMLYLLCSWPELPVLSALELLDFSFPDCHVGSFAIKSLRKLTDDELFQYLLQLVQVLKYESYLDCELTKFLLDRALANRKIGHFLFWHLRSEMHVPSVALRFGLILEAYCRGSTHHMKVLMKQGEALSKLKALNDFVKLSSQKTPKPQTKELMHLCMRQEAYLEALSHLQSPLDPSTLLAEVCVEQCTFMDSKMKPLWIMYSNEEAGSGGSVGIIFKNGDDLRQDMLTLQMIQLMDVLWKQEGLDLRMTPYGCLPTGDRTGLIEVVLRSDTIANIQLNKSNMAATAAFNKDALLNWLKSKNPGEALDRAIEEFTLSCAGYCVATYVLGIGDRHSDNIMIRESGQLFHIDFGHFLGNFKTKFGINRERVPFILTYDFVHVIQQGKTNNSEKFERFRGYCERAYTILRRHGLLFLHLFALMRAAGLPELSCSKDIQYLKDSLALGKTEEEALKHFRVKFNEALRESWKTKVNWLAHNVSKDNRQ
PI3Kδ (p110δ/p85α) Recombinant Human Protein, sequence (P27986 whole entry partner): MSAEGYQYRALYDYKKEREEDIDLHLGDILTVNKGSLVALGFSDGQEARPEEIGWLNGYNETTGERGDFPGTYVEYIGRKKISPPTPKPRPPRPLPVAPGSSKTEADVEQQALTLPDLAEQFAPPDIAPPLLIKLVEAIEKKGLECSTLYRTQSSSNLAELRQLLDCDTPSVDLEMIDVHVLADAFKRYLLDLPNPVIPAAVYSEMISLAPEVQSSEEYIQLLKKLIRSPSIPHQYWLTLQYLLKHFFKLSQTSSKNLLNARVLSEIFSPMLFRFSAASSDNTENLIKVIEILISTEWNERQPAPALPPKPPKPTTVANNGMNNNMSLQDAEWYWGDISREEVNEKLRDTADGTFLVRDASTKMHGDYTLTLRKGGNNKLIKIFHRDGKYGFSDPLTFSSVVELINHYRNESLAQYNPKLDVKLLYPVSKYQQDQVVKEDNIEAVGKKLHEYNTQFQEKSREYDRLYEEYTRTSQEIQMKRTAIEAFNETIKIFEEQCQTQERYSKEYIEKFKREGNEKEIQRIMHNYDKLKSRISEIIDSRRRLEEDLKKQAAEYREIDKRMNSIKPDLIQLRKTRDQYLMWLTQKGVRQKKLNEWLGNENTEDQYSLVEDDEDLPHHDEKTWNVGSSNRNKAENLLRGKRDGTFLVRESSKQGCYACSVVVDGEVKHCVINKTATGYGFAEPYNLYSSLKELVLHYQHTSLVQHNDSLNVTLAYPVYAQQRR

IC50 ([1]; 2 μM ATP, 20 μM PIP2)	IC50 [2]	IC50 ([1]; Table B, Assay C)	SMILES
< 2000 nM	< 500 nM	–	CC(NC(=O)c1c(N)nn2cccnc12)c1cc(C2CC2)c2cncn2c1-c1ccccc1 (racemic) [Example 117, 2-Amino-N-[1-(8-cyclopropyl-5-phenylimidazo[1,5-a]pyridin-6-yl)ethyl]pyrazolo[1,5-a]pyrimidine-3-carboxamide trifluoroacetate salt]
< 500 nM	< 500 nM	–	CNC(=O)c1ccc(-c2c(C(C)NC(=O)c3c(N)nn4cccnc34)cc(Cl)c3cncn23)cn1 (racemic) [Example 132, 2-Amino-N-[1-{8-chloro-5-{6-[(methylamino)carbonyl]pyridin-3-yl}imidazo [1,5-a]pyridin-6-yl)ethyl]pyrazolo[1,5-a]pyrimidine-3-carboxamide trifluoroacetate salt]
< 2000 nM	< 500 nM	–	CC(NC(=O)c1c(N)nn2cccnc12)c1cc(Cl)c2cncn2c1C1CCCCC1 (racemic) [Example 183, 2-Amino-N-[1-(8-chloro-5-cyclohexylimidazo[1,5-a]pyridin-6-yl)ethyl]pyrazolo[1,5-a]pyrimidine-3-carboxamide trifluoroacetate salt]
≥ 2000 nM	< 500 nM	–	Cc1nnc2c(Cl)cc(C(C)NC(=O)c3c(N)nn4cccnc34)c(-c3ccccc3)n12 (racemic) [Example 184, 2-Amino-N-[1-(8-chloro-3-methyl-5-phenyl[1,2,4]triazolo[4,3-a]pyridin-6-yl)ethyl]pyrazolo[1,5-a]pyrimidine-3-carboxamide trifluoroacetate salt]
≥ 2000 nM	< 500 nM	–	CC(NC(=O)c1c(N)nn2cccnc12)c1cc(Cl)c2nncn2c1-c1ccccc1 (racemic) [Example 185, 2-Amino-N-[1-(8-chloro-5-phenyl[1,2,4]triazolo[4,3-a]pyridin-6-yl)ethyl]pyrazolo[1,5-a]pyrimidine-3-carboxamide trifluoroacetate salt]
≥ 2000 nM	> 2000 nM	–	CCOc1c(C(C)NC(=O)c2c(N)nn3cccnc23)cc(Cl)c2cn[nH]c12 (single isomer, unassigned) [Example 3b, 2-amino-N-[1-(4-chloro-7-ethoxy-1H-indazol-6-yl)ethyl]pyrazolo[1,5-a]pyrimidine-3-carboxamide trifluoroacetate]
–	–	50 to 200 nM	CCOc1c(C(C)n2nc(C)c3c(N)ncnc32)cc(Cl)c(F)c1C1CNC(=O)C1 (single isomer, unassigned) [Example 32a, 4-{3-[1-(4-amino-3-methyl-1H-pyrazolo[3,4-d]pyrimidin-1-yl)ethyl]-5-chloro-2-ethoxy-6-fluorophenyl}pyrrolidin-2-one, reference compound]
–	–	< 50 nM	CCOc1c(C(C)n2nc(C)c3c(N)ncnc32)cc(Cl)c(F)c1C1CNC(=O)C1 (single isomer, unassigned) [Example 32b, 4-{3-[1-(4-amino-3-methyl-1H-pyrazolo[3,4-d]pyrimidin-1-yl)ethyl]-5-chloro-2-ethoxy-6-fluorophenyl}pyrrolidin-2-one, reference compound]
–	–	< 50 nM	CCOc1c(C(C)n2nc(C)c3c(N)ncnc32)cc(Cl)c(F)c1C1CNC(=O)C1 (single isomer, unassigned) [Example 32c, 4-{3-[1-(4-amino-3-methyl-1H-pyrazolo[3,4-d]pyrimidin-1-yl)ethyl]-5-chloro-2-ethoxy-6-fluorophenyl}pyrrolidin-2-one, reference compound]
–	–	50 to 200 nM	CCOc1c(C(C)n2nc(C)c3c(N)ncnc32)cc(Cl)c(F)c1C1CNC(=O)C1 (single isomer, unassigned) [Example 32d, 4-{3-[1-(4-amino-3-methyl-1H-pyrazolo[3,4-d]pyrimidin-1-yl)ethyl]-5-chloro-2-ethoxy-6-fluorophenyl}pyrrolidin-2-one, reference compound]
< 2000 nM	< 2000 nM	–	CCOc1c(C(C)NC(=O)c2c(N)nn3cccnc23)cc(Cl)c2cn(CCOC)nc12 (stereo not drawn) [Example 5a, 2-amino-N-(1-(4-chloro-7-ethoxy-2-(2-methoxyethyl)-2H-indazol-6-yl)ethyl)pyrazolo[1,5-a]pyrimidine-3-carboxamide trifluoroacetate]
< 2000 nM	< 2000 nM	–	CCOc1c(C(C)NC(=O)c2c(N)nn3cccnc23)cc(Cl)c2cn(CCO)nc12 (stereo not drawn) [Example 6a, 2-amino-N-(1-(4-chloro-7-ethoxy-2-(2-hydroxyethyl)-2H-indazol-6-yl)ethyl)pyrazolo[1,5-a]pyrimidine-3-carboxamide trifluoroacetate]
≥ 2000 nM	> 2000 nM	–	CCOc1c(C(C)NC(=O)c2c(N)nn3cccnc23)cc(Cl)c2cn(CC#N)nc12 (stereo not drawn) [Example 7a, 2-amino-N-(1-(4-chloro-2-(cyanomethyl)-7-ethoxy-2H-indazol-6-yl)ethyl)pyrazolo[1,5-a]pyrimidine-3-carboxamide trifluoroacetate]
≥ 2000 nM	< 2000 nM	–	CCOc1c(C(C)NC(=O)c2c(N)nn3cccnc23)cc(Cl)c2cn(Cc3ccccc3)nc12 (stereo not drawn) [Example 8a, 2-amino-N-(1-(2-benzyl-4-chloro-7-ethoxy-2H-indazol-6-yl)ethyl)pyrazolo[1,5-a]pyrimidine-3-carboxamide trifluoroacetate]
≥ 2000 nM	< 2000 nM	–	CCOc1c(C(C)NC(=O)c2c(N)nn3cccnc23)cc(Cl)c2cn(CC(C)C)nc12 (stereo not drawn) [Example 9a, 2-amino-N-(1-(4-chloro-7-ethoxy-2-isobutyl-2H-indazol-6-yl)ethyl)pyrazolo[1,5-a]pyrimidine-3-carboxamide trifluoroacetate]
≥ 2000 nM	< 2000 nM	–	CCOc1c(C(C)NC(=O)c2c(N)nn3cccnc23)cc(Cl)c2cn(C3CCC3)nc12 (stereo not drawn) [Example 10a, 2-amino-N-(1-(4-chloro-2-cyclobutyl-7-ethoxy-2H-indazol-6-yl)ethyl)pyrazolo[1,5-a]pyrimidine-3-carboxamide trifluoroacetate]
–	–	< 50 nM	COc1c(C(C)n2nc(C)c3c(N)ncnc32)cc(Cl)c(C#N)c1C1CN(C[C@H](C)O)C1 (stereo partly drawn) [Example 29, 4-[1-(4-amino-3-methyl-1H-pyrazolo[3,4-d]pyrimidin-1-yl)ethyl]-6-chloro-2-{1-[(2S)-2-hydroxypropyl]azetidin-3-yl}-3-methoxybenzonitrile]
–	–	< 50 nM	COc1c(C(C)n2nc(C)c3c(N)ncnc32)cc(Cl)c(C#N)c1C1CN(CCO)C1 (stereo not drawn) [Example 30, 4-[1-(4-amino-3-methyl-1H-pyrazolo[3,4-d]pyrimidin-1-yl)ethyl]-6-chloro-2-[1-(2-hydroxyethyl)azetidin-3-yl]-3-methoxybenzonitrile]
–	–	< 50 nM	CCOc1c(C(C)n2nc(C)c3c(N)ncnc32)cc(C)c(C#N)c1-c1ccc(C(=O)N(C)C)nc1 (stereo not drawn) [Example 31, 5-{3-[1-(4-amino-3-methyl-1H-pyrazolo[3,4-d]pyrimidin-1-yl)ethyl]-6-cyano-2-ethoxy-5-methylphenyl}-N,N-dimethylpyridine-2-carboxamide, reference compound]

SMILES	IC50 ([1]; 2 μM ATP, 20 μM PIP2)	IC50 [2]	IC50 ([1]; Table B, Assay C)
CC(NC(=O)c1c(N)nn2cccnc12)c1cc(Cl)c2c(C(F)(F)F)ncn2c1N1CCNS(=O)(=O)CC1 (racemic) [Example 159, 2-Amino-N-{1-[8-chloro-5-(1,1-dioxido-1,2,5-thiadiazepan-5-yl)-1-(trifluoromethyl)imidazo[1,5-a]pyridin-6-yl]ethyl}pyrazolo[1,5-a]pyrimidine-3-carboxamide trifluoroacetate salt]	< 2000 nM	< 500 nM	–
